The text below walks through data of article PMC8112869, “Therapeutic inhibition of keratinocyte TRPV3 sensory channel by local anesthetic dyclonine” (eLife, 2021).

In general, IC50 refers to the concentration that gives 50% inhibition.

The target of experiment [1] is T1, endogenous TRPV3 channels in mouse keratinocytes (Mus musculus, UniProt Q8K424).
T1 construct: endogenous in cells; host or cells: primary epidermal keratinocytes of newborn WT C57B/6 mice
T1 sequence (Q8K424 1-791): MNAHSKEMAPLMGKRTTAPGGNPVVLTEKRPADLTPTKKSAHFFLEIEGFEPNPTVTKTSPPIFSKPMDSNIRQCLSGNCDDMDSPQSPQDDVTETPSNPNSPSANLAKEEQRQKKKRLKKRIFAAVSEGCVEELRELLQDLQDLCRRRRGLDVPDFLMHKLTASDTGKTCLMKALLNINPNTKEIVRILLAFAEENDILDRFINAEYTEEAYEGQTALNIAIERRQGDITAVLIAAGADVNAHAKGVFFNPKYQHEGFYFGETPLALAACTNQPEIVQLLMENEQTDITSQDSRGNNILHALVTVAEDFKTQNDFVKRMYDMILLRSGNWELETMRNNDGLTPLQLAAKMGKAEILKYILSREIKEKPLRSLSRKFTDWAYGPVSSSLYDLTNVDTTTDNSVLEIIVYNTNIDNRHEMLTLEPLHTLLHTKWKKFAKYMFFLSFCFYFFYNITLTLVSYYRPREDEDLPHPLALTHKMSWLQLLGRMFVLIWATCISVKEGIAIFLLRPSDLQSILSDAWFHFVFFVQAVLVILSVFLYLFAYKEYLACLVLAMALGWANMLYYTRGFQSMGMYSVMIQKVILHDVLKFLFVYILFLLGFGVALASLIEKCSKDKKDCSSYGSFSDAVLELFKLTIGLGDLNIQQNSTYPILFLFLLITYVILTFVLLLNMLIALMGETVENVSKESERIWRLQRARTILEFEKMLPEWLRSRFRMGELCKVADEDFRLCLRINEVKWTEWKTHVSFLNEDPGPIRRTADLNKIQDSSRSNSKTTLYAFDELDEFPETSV
Briefly: Whole-cell recording of 2-APB-evoked TRPV3 currents in primary mouse epidermal keratinocytes. In kind it is cell-based. The conditions noted are these: for TRPV3 currents, of control level: 300 μM 2-APB, –60 mV. As to the method: The animal protocol used in this study was approved by the Institutional Animal Care and Use Committee of Wuhan University. Primary mouse keratinocytes were prepared according to the method previously described ([Luo et al., 2012]; [Pirrone et al., 2005]). Briefly, newborn WT C57B/6 mice (postnatal days 1–3) were deeply anaesthetized and decapitated and then soaked in 10% povidone-iodine, 70% ethanol, and phosphate-buffered saline (PBS) for 5 min, respectively. The skin on the back was removed and rinsed with pre-cold sterile PBS in a 100 mm Petri dish and transferred into a 2 ml tube filled with pre-cold digestion buffer containing 4 mg/ml dispase II and incubated overnight at 4°C. After treatment with dispase II for 12–18 hr, the epidermis was gently peeled off from dermis and collected. Keratinocytes were dispersed by gentle scraping and flushing with KC growth medium (Invitrogen). The resulting suspension of single cells was collected by centrifuge, and cells were seeded onto coverslips pre-coated with poly-L-lysine and maintained in complete keratinocyte serum-free growth medium (Invitrogen). Cell culture medium was refreshed every two days. Patch-clamp recordings were carried out 48 hr after plating.
(§1) Conventional whole-cell and excised patch-clamp recording methods were used. For the recombinant expressing system, green fluorescent EGFP was used as a surface marker for gene expression. Recording pipettes were pulled from borosilicate glass capillaries (World Precision Instruments) and fire-polished to a resistance between 2 and 4 MΩ when filled with internal solution containing (in mM) 140 CsCl, 2.0 MgCl2, 5 EGTA, and 10 HEPES, pH 7.4 (adjusted with CsOH). Bath solution contained (in mM): 140 NaCl, 5 KCl, 3 EGTA, and 10 HEPES, pH 7.4 adjusted with NaOH. For recordings in keratinocytes, the bath saline consisted of (in mM) 140 NaCl, 5 KCl, 2 MgCl2, 2 CaCl2, 10 glucoses, and 10 HEPES, pH 7.4 adjusted with NaOH, and the pipette solution contained (in mM) 140 CsCl, 5 EGTA, and 10 HEPES, pH 7.3 adjusted with CsOH. For single-channel recordings, the pipette solution and bath solution were symmetrical and contained (in mM) 140 NaCl, 5 KCl, 3 EGTA, and 10 HEPES, pH 7.4. Isolated cells were voltage clamped and held at –60 mV using an EPC10 amplifier with the Patchmaster software (HEKAElectronics, Lambrecht, Germany). For a subset of recordings, currents were amplified using an Axopatch 200B amplifier (Molecular Devices, Sunnyvale, CA) and recorded through a BNC-2090/MIO acquisition system (National Instruments, Austin, TX) using QStudio developed by Dr. Feng Qin at State University of New York at Buffalo. […] As determined by the conductance tests, the solution around a patch under study was fully controlled by the application of a flow rate of 100 μl/min or greater. […]

The target of a further experiment is T2, TRPV3 (Mus musculus, UniProt Q8K424).
T2 construct: expressed in transfected cells; host or cells: HEK 293T
T2 sequence (Q8K424 1-791): T1 sequence (Q8K424 1-791)
The experiment in a line: Heat-activated TRPV3 currents (infrared laser temperature jump) in HEK 293T cells. The experiment is classed as cell-based.
From the text: as §1, with “For recordings in keratinocytes, the bath saline consisted of (in mM) 140 NaCl, 5 KCl, 2 MgCl2, 2 CaCl2, 10 glucoses, and 10 HEPES, pH 7.4 adjusted with NaOH, and the pipette solution contained (in mM) 140 CsCl, 5 EGTA, and 10 HEPES, pH 7.3 adjusted with CsOH. For single-channel recordings, the pipette solution and bath solution were symmetrical and contained (in mM) 140 NaCl, 5 KCl, 3 EGTA, and 10 HEPES, pH 7.4. Isolated cells were voltage clamped and held at –60 mV using an EPC10 amplifier with the Patchmaster software (HEKAElectronics, Lambrecht, Germany).” left out
Constant temperature steps were generated by irradiating the tip of an open pipette and using the current of the electrode as the readout for feedback control. […]

As for `CCCCOc1ccc(C(=O)CCN2CCCCC2)cc1` [dyclonine], the results for the “TRPV3 currents, of control level” value in experiment [1] (5 μM dyclonine) and in experiment [1] (30 μM dyclonine) were 52% ± 7% and 13% ± 0.01%, respectively. Further, the IC50 in experiment [1] (300 μM 2-APB-evoked, read-out: IC50 on TRPV3 currents in cultured keratinocytes) was 5.2 ± 0.71 µM. The entries for the “Hill coefficient nH” value (in experiment [1] (keratinocytes); at TRPV3) were 2.4 ± 0.75 and 1.9 ± 0.54, respectively.
